Measurements: patent publication US20090155179A1, “KINETIC BIOMARKER FOR QUANTIFICATION OF LYMPHOPROLIFERATION, CLONAL EXPANSION, RECRUITMENT AND TRAFFICKING IN LYMPHOID TISSUES AND OF THE IN VIVO ACTIONS OF ANTIGENS AND MODULATING THEREON” (KINEMED, INC., priority 2005, published 2009)
Entries after “also recorded” stand apart in the source; their conditions may differ.

What was measured:
[1] = tested on: PLN cells (draining popliteal lymph node lymphocytes); test: kinetic PLNA (popliteal lymph node assay) with continuous 2H2O labeling after footpad immunization; format: in vivo, Balb/c mice; conditions: for PLN cellularity under drug treatment: 5 μg KLH or PBS, Rap 2 mg/kg/d p.o.
Description: PLNA and heavy water labeling. The kinetic PLNA was performed as follows, except as noted in the Figure legends. In all experiments, groups of n=4 or 5 Balb/c mice were immunized subcutaneously on day 0 in the left hind footpad (toe to heel direction) with 20 μl PBS or drug vehicle (negative control group), or with 20 μl PBS containing 5-25 μg KLH (positive control group). Heavy water labeling was initiated on day 0 by intraperitoneal administration of 99.9% ^2H2O containing 0.9% w/v NaCl at 35 ml/kg body weight, and animals were maintained on 8% ^2H2O in drinking water for the remainder of the study. At day 7 post immunization, animals were bled into heparinized tubes by cardiac puncture under isoflurane anesthesia and sacrificed by cervical dislocation. The blood was centrifuged at 1500×g for 10 minutes, and heparinized plasma was stored at −20° C. for determination of body water ^2H enrichment; a second aliquot was frozen for serologic studies. Bone marrow was harvested from the right hindlimb femur by flushing the bone with 1 ml PBS using a 25 ga cannula and centrifuging the tissue and cell suspension at 450×g for 5 min.
Analysis of PLN cells. Draining PLN were dissected from the left hind limb, mechanically dispersed, using tweezers, into ice-cold RPMI 1640 containing 10% fetal bovine serum and antibiotics. The cell suspensions were thoroughly mixed and strained through a 35 μm cell strainer fitted to a 12×75 mm polystyrene tube (BD Biosciences, San Jose, Calif.) and centrifuged at 450×g at 4° C. for 5 min. Cells were suspended in 100 μl staining buffer (PBS containing 0.5% w/v bovine serum albumin, 2 mM EDTA, and 0.05% sodium azide), blocked by addition of 20 μl mg/ml murine IgG (Sigma) and 2 μl anti-CD16/CD32 mAb (Miltenyi Biotec, City/State) at 4° C. for 15 min., and stained with anti-CD3-FITC and anti-B220-PE/Cy5 (eBioscience, 1 μl each) for 15 min. The samples were diluted to 900 μl with staining buffer, mixed thoroughly with 100 μl Flow-Count fluorospheres, and analyzed on an Epics XL flow cytometer (Beckman Coulter, City/State) for determination of absolute lymph node cell counts and percentages and absolute counts of T cells, B cells, and non-T/B cells. Absolute cell counts per lymph node were determined as:
Analysis of ^2H incorporation into purine dR. DNA was extracted from samples of bone marrow, total PLN cells, or sorted T and B cells using DNEasy kits (Qiagen, Valencia, Calif.) according to the manufacturer's instructions. Aliquots (0.5 μg) were hydrolyzed to […] by overnight incubation at 37° C. with 0.5 units nuclease SI (Sigma) and 0.25 units potato acid phosphatase (Calbiochem) in 75 mM sodium acetate buffer, pH 4.8, containing 0.15 mM ZnSO4. […] The hydroxyl groups were acetylated using acetic anhydride and N-methylimidazole, and the resultant pentafluorobenzyl […] derivative was extracted into dichloromethane, dried under vacuum, and redissolved in 100 μl ethyl acetate. The derivative was analyzed by gas chromatography/mass spectrometry (GC/MS) as described supra, with selected ion monitoring at m/z 435 (for the parent mass isotopomer, M0) and 436 (M1). After integration of the M0 and M1 peak area using ChemStation software, the excess mole fraction of the M1 mass isotopomer (EM1) was calculated as: […]
Calculations and statistics. Fractional turnover of PLN cell populations (f, the fraction of total, T, or B cells that have divided during the labeling period, representing clonal expansion, FIG. 1) was calculated as:
f=EM1observed/EM1maximal,
where EM1maximal was represented, in most experiments, by bone marrow DNA from the same animal, or assumed to equal 0.14. Alternatively, for mice labeled for less than four days, EM1maximal was represented by 0.9× the EMI value predicted from the animal's body water ^2H enrichment (the factor of 0.9 represents dilution by salvage).

[2] = tolerability of maintained 2H2O body water enrichment; format: in vivo; conditions: 1-10% of total body water labeled, weeks or months, humans (>100 people) and experimental animals
Source text: Relatively high body water enrichments of ^2H2O (e.g., 1-10% of the total body water is labeled) may be achieved relatively inexpensively using the techniques of the invention. […] This finding in a large number of human subjects (>100 people) is contrary to previous concerns about vestibular toxicities at high doses of ^2H2O. One of the Applicants has discovered that as long as rapid changes in body water enrichment are prevented (e.g., by initial administration in small, divided doses), high body water enrichments of ^2H2O can be maintained with no toxicities. For example, the low expense of commercially available ^2H2O allows long-term maintenance of enrichments in the 1-5% range at relatively low expense.

[3] = tested on: xenografted human tumor cells; test: f of xenografted human tumor cells in mice; format: in vivo; conditions: 10 mg/kg/d, i.p.; previously seen
[4] = tested on: PLN cells; test: kinetic PLNA with 2H2O labeling after KLH immunization in C57BI/6 mice; format: in vivo, C57BI/6 (B6) mice; conditions: B6 mice
[5] = day 7, Dex 0.3 mg/kg/d p.o., Tax 10 mg/kg/d i.p., OHU 500 mg/kg/d i.p.

For `O=[N+]([O-])c1ccc(Cl)c([N+](=O)[O-])c1` [DNCB, 2,4-dinitrochlorobenzene], the “dose above which f reached a plateau” value ([1]; Balb/c, DNCB in PBS:DMSO, day 7) was “above 100 μg”.

For `[2H]O[2H]` [^2H2O], the “toxicity of maintained body water enrichment” value [2] was “without any evidence of toxicity”.

For `NC(=O)NO` [hydroxyurea], the “PLN cellularity under drug treatment” value [1, 5] was “modest and variable effects”, the “f of total PLN cells after KLH stimulation” value ([1]; 5 μg KLH, daily drug to day 7: Rap 2 mg/kg/d p.o., OHU 500 mg/kg/d i.p.) was “strongly inhibited” and the “f of total PLN cells at baseline” value ([1]; sham-immunized (PBS), daily drug to day 7: Rap 2 mg/kg/d p.o., OHU 500 mg/kg/d i.p.) was “strongly inhibited”.

With `CC(=O)O[C@H]1C(=O)[C@@]2(C)[C@H]([C@H](OC(=O)c3ccccc3)[C@]3(O)C[C@H](OC(=O)[C@H](O)[C@@H](NC(=O)c4ccccc4)c4ccccc4)C(C)=C1C3(C)C)[C@]1(OC(C)=O)CO[C@@H]1C[C@@H]2O` [paclitaxel] the “f of xenografted human tumor cells in mice” value [3] was “strong inhibition”, the “PLN cellularity under drug treatment” value [1, 5] was “reduced” and the “f (clonal expansion) of PLN cells under drug treatment” value ([1]; stimulation not specified, Tax 10 mg/kg/d i.p., Dex 0.3 mg/kg/d p.o., day 7) was “did not affect f”.

In the case of keyhole limpet hemocyanin [KLH], the “proliferation response to low doses of KLH” value ([1]; Balb/c, 0.2-2 μg KLH) is reported as “increase in f without a change in PLN cellularity”, the “proliferation response to higher doses of KLH” value ([1]; Balb/c, 5-25 μg KLH or with incomplete Freund's adjuvant) is reported as “f reached a plateau” and the “increase of PLN cellularity” value ([1]; Balb/c, KLH doses that increased cellularity) is reported as 2- to 3 fold. For the same compound, the “antigen dose at which cellularity was maximal” value ([1]; Balb/c, KLH in PBS, day 7) was “around 25 μg”, the “antigen dose at which f was maximally increased” value ([1]; Balb/c, KLH, as little as) was 600 ng and the “CD4+ T cell f” value ([1]; Balb/c, KLH-immunized, day 7, other attempts, vs. 7.5%±1.3% without KLH, p=0.017) was 11.3%±2.1. For the same compound, the “proliferating cells as share of cells in the PLN” value ([1]; Balb/c, any KLH dose, day 7) was no more than 20%, the “f in total PLN cells after immunization” value ([1]; Balb/c, footpad immunization, day 7) was “elevated to a dose-independent plateau; also recorded: significant; also recorded: increased f” and the “f in PLN B cells after immunization” value ([1]; Balb/c, sorted B cells, day 7) was “pronounced increase; also recorded: Significant KLH effect; also recorded: significantly increased”. For the same compound, the “f in CD4+ T cells after immunization” value ([1]; Balb/c, sorted CD4+ T cells, day 7) was “smaller increase”, the “f in CD8+ T cells after immunization” value ([1]; Balb/c, sorted CD8+ T cells, day 7) was “not in CD8^+ T cells” and the “f in total T cells after immunization” value ([1]; Balb/c, sorted T cells, day 7) was “smaller increase; also recorded: Significant KLH effect”. The “f in sorted B cells and total T cells” value ([4]; 200 μg KLH, day 7) was “Neither B cells nor T cells showed a substantial increase”, the “f in PLN cells after KLH immunization, day 7” value ([4]; 2-200 μg KLH, day 7) was “no significant increase; also recorded: lower” and the “cellularity in PLN” value ([4]; 7 days after KLH immunization) was “dose-dependent”. The “f in PLN cells, time course” value ([4]; KLH, day 4) was “transient increase”.
